# Experimental data from ChEMBL document CHEMBL1137031, “Synthesis and antibacterial activity of C-6 carbamate ketolides, a novel series of orally active ketolide antibiotics” (2004).
# Assays:
# [1] = system: Staphylococcus haemolyticus; assay: Minimum inhibitory concentration against Staphylococcus haemolyticus OC4545
# Streptococcus pneumoniae [2] = assay: Minimum inhibitory concentration against Streptococcus pneumoniae OC4051
# Haemophilus influenzae = assay: Minimum inhibitory concentration against Haemophilus influenzae OC4482
# Streptococcus pneumoniae [3] = assay: Minimum inhibitory concentration against Streptococcus pneumoniae OC9132
# [4] = system: Staphylococcus haemolyticus; assay: Minimum inhibitory concentration against Staphylococcus haemolyticus OC3882
# Staphylococcus aureus [5] = assay: Minimum inhibitory concentration against Staphylococcus aureus OC4172; type: functional
# Staphylococcus aureus [6] = assay: Minimum inhibitory concentration against Staphylococcus aureus OC4172 in presence of mouse serum; type: functional
# Mus musculus [7] = assay: Percent survival of Staphylococcus aureus infected murine was tested after peroral injection of 20 mg/kg dose; type: functional; conditions: route oral
# Streptococcus pneumoniae [8] = assay: Minimum inhibitory concentration against Streptococcus pneumoniae OC4421
# Mus musculus [9] = assay: Percent survival of Staphylococcus aureus infected murine was tested after subcutaneous injection of 10 mg/kg dose; type: functional; conditions: sc
# Mus musculus [10] = assay: Effective dose against Staphylococcus aureus infected murine was tested after subcutaneous injection; type: functional; conditions: sc
# Mus musculus [11] = species: Mus musculus; assay: Effective dose against Staphylococcus aureus infected murine was tested after peroral injection; type: functional
SMILES,MIC [1] [µg/mL],MIC (Streptococcus pneumoniae [2]) [µg/mL],MIC (Haemophilus influenzae) [µg/mL],MIC (Streptococcus pneumoniae [3]) [µg/mL],MIC [4] [µg/mL],MIC (Staphylococcus aureus [5]) [µg/mL],MIC (Staphylococcus aureus [6]) [µg/mL],survival at 20 mg/kg (Mus musculus [7]) [%],MIC (Streptococcus pneumoniae [8]) [µg/mL],survival at 10 mg/kg (Mus musculus [9]) [%],ED50 (Mus musculus [10]) [mg/kg],ED50 (Mus musculus [11]) [mg/kg]
CC[C@H]1OC(=O)C(C)C(=O)[C@H](C)[C@@H](O[C@@H]2O[C@H](C)C[C@H](N(C)C)[C@H]2O)[C@](C)(OC(=O)N/C=C/c2ccc(-c3ccccn3)cc2)C[C@@H](C)C(=O)[C@H](C)[C@H]2NC(=O)O[C@@]21C (stereo partly specified),> 16,0.06,4,0.03,0.12,0.12,0.5,20,0.06,80,,
CC[C@H]1OC(=O)C(C)C(=O)[C@H](C)[C@@H](O[C@@H]2O[C@H](C)C[C@H](N(C)C)[C@H]2O)[C@](C)(OC(=O)N/C=C/c2ccc(-c3ccccc3)cc2)C[C@@H](C)C(=O)[C@H](C)[C@H]2NC(=O)O[C@@]21C (stereo partly specified),> 16,0.5,8,0.06,1,0.5,2,,0.25,,,
CC[C@H]1OC(=O)C(C)C(=O)[C@H](C)[C@@H](O[C@@H]2O[C@H](C)C[C@H](N(C)C)[C@H]2O)[C@](C)(OC(=O)N/C=C/c2ccc3ccccc3n2)C[C@@H](C)C(=O)[C@H](C)[C@H]2NC(=O)O[C@@]21C (stereo partly specified),> 16,0.03,4,≤ 0.01,0.25,0.25,0.5,25,0.06,75,,
CC[C@H]1OC(=O)C(C)C(=O)[C@H](C)[C@@H](O[C@@H]2O[C@H](C)C[C@H](N(C)C)[C@H]2O)[C@](C)(OC(N)=O)C[C@@H](C)C(=O)[C@H](C)[C@H]2NC(=O)O[C@@]21C (stereo partly specified),> 16,> 16,2,2,> 16,4,1,,2,,,
CC[C@H]1OC(=O)C(C)C(=O)[C@H](C)[C@@H](O[C@@H]2O[C@H](C)C[C@H](N(C)C)[C@H]2O)[C@](C)(OC(=O)N/C=C/c2ccc3cccnc3c2)C[C@@H](C)C(=O)[C@H](C)[C@H]2NC(=O)O[C@@]21C (stereo partly specified),> 16,0.03,2,≤ 0.01,0.25,0.12,0.5,0,0.03,40,,
CC[C@H]1OC(=O)C(C)C(=O)[C@H](C)[C@@H](O[C@@H]2O[C@H](C)C[C@H](N(C)C)[C@H]2O)[C@](C)(OC(=O)NCCc2ccccc2)C[C@@H](C)C(=O)[C@H](C)[C@H]2NC(=O)O[C@@]21C (stereo partly specified),> 16,2,8,0.25,4,1,2,,0.12,,,
CC[C@H]1OC(=O)C(C)C(=O)[C@H](C)[C@@H](O[C@@H]2O[C@H](C)C[C@H](N(C)C)[C@H]2O)[C@](C)(OC(=O)NCCCc2ccccc2)C[C@@H](C)C(=O)[C@H](C)[C@H]2NC(=O)O[C@@]21C (stereo partly specified),> 16,1,16,0.06,2,2,8,,0.12,,,
CC[C@H]1OC(=O)C(C)C(=O)[C@H](C)[C@@H](O[C@@H]2O[C@H](C)C[C@H](N(C)C)[C@H]2O)[C@](C)(OC(=O)N/C=C/c2ccc(-n3ccnc3)cc2)C[C@@H](C)C(=O)[C@H](C)[C@H]2NC(=O)O[C@@]21C (stereo partly specified),> 16,0.12,4,≤ 0.01,1,0.12,0.25,0,0.25,60,,
CC[C@H]1OC(=O)C(C)C(=O)[C@H](C)[C@@H](O[C@@H]2O[C@H](C)C[C@H](N(C)C)[C@H]2O)[C@](C)(OC(=O)N/C=C/c2ccc(-c3cnccn3)cc2)C[C@@H](C)C(=O)[C@H](C)[C@H]2NC(=O)O[C@@]21C (stereo partly specified),> 16,0.06,4,0.03,0.25,0.12,0.25,62,0.12,100,4.8,17
CC[C@H]1OC(=O)C(C)C(=O)[C@H](C)[C@@H](O[C@@H]2O[C@H](C)C[C@H](N(C)C)[C@H]2O)[C@](C)(OC(=O)NCc2ccccc2)C[C@@H](C)C(=O)[C@H](C)[C@H]2NC(=O)O[C@@]21C (stereo partly specified),> 16,8,16,1,> 16,4,8,,0.25,,,
CC[C@H]1OC(=O)C(C)C(=O)[C@H](C)[C@@H](O[C@@H]2O[C@H](C)C[C@H](N(C)C)[C@H]2O)[C@](C)(OC(=O)N/C=C/c2ccc(-c3ccncc3)cc2)C[C@@H](C)C(=O)[C@H](C)[C@H]2NC(=O)O[C@@]21C (stereo partly specified),> 16,0.5,8,0.03,2,0.5,2,,0.12,,,
CC[C@H]1OC(=O)C(C)C(=O)[C@H](C)[C@@H](O[C@@H]2O[C@H](C)C[C@H](N(C)C)[C@H]2O)[C@](C)(OC(=O)N/C=C/c2ccc(-c3ncccn3)cc2)C[C@@H](C)C(=O)[C@H](C)[C@H]2NC(=O)O[C@@]21C (stereo partly specified),> 16,0.06,4,0.03,0.12,0.12,0.25,40,0.06,100,1.8,15
CC[C@H]1OC(=O)C(C)C(=O)[C@H](C)[C@@H](O[C@@H]2O[C@H](C)C[C@H](N(C)C)[C@H]2O)[C@](C)(OC(=O)Nc2ccccc2)C[C@@H](C)C(=O)[C@H](C)[C@H]2NC(=O)O[C@@]21C (stereo partly specified),> 16,8,8,0.03,> 16,2,1,,0.06,,,
CC[C@H]1OC(=O)C(C)C(=O)[C@H](C)[C@@H](O[C@@H]2O[C@H](C)C[C@H](N(C)C)[C@H]2O)[C@](C)(OC(=O)N/C=C/c2ccccc2)C[C@@H](C)C(=O)[C@H](C)[C@H]2NC(=O)O[C@@]21C (stereo partly specified),> 16,0.5,4,0.06,4,0.25,2,,0.06,,,
CC[C@H]1OC(=O)C(C)C(=O)[C@H](C)[C@@H](O[C@@H]2O[C@H](C)C[C@H](N(C)C)[C@H]2O)[C@](C)(OC(=O)N/C=C/c2ccc(-c3cccnc3)cc2)C[C@@H](C)C(=O)[C@H](C)[C@H]2NC(=O)O[C@@]21C (stereo partly specified),> 16,0.12,4,0.03,1,0.25,1,,0.25,,,
CC[C@H]1OC(=O)C(C)C(=O)[C@H](C)[C@@H](O[C@@H]2O[C@H](C)C[C@H](N(C)C)[C@H]2O)[C@](C)(OC(=O)N/C=C/c2ccc(-n3cccn3)cc2)C[C@@H](C)C(=O)[C@H](C)[C@H]2NC(=O)O[C@@]21C (stereo partly specified),> 16,0.06,4,0.03,0.12,0.12,0.25,60,0.06,80,7.1,> 30
CC[C@H]1OC(=O)[C@H](C)[C@@H](O[C@H]2C[C@@](C)(OC)[C@@H](O)[C@H](C)O2)[C@H](C)[C@@H](O[C@@H]2O[C@H](C)C[C@H](N(C)C)[C@H]2O)[C@](C)(O)C[C@@H](C)C(=O)[C@H](C)[C@@H](O)[C@]1(C)O [ERYTHROMYCIN],> 16,> 16,4,0.06,> 16,0.5,0.06,,4,,,
CC[C@H]1OC(=O)[C@H](C)C(=O)[C@H](C)[C@@H](O[C@@H]2O[C@H](C)C[C@H](N(C)C)[C@H]2O)[C@](C)(OC)C[C@@H](C)C(=O)[C@H](C)[C@H]2N(CCCCn3cnc(-c4cccnc4)c3)C(=O)O[C@]12C [TELITHROMYCIN],> 16,0.06,2,≤ 0.01,0.25,0.12,0.5,,0.12,,4.4,15
